Reference: US20060069132A1, “Azolecarboxamide herbicides” (priority 2004, published 2006)

How the values were obtained:
barnyardgrass [1] = assay: Test A pre-/postemergence herbicide test; format: in vivo, Echinochloa crus-galli
Summary of the method: (§1)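 Both application timings were run together: directed soil spray over freshly planted seeds in sandy loam, and runoff spray onto 2–10 cm seedlings. Evaluation after ~10 days in greenhouse used a 0–100 visual scale versus untreated controls.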

large crabgrass [2] = assay: Test A pre-/postemergence herbicide test; format: in vivo, Digitaria sanguinalis
Summary of the method: as §1

giant foxtail [3] = assay: Test A pre-/postemergence herbicide test; format: in vivo, Setaria faberi
Summary of the method: as §1

morningglory [4] = assay: Test A pre-/postemergence herbicide test; format: in vivo, Ipomoea spp.
Summary of the method: as §1

redroot pigweed = assay: Test A pre-/postemergence herbicide test; format: in vivo, Amaranthus retroflexus
Summary of the method: as §1

velvetleaf [5] = assay: Test A pre-/postemergence herbicide test; format: in vivo, Abutilon theophrasti
Summary of the method: as §1

barnyardgrass [6] = assay: Test B pre-/postemergence herbicide test; format: in vivo, Echinochloa crus-galli; details: for Plant response rating, Barnyardgrass: preemergence; for Barnyardgrass plant response rating: postemergence, visual rating, scale 0 (no effect) to 100 (complete control)
Summary of the method: (§2)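 Visual rating, 0 (no effect) to 100 (complete control), versus untreated controls after 13–15 d in greenhouse. Pre- and postemergence applications (postemergence plants 2–18 cm, 1–4 leaves); flooded paddy arm at 2-leaf stage. Compounds in non-phytotoxic solvent plus surfactant.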

Surinam grass = assay: Test B pre-/postemergence herbicide test; format: in vivo, Urochloa decumbens; details: for Plant response rating, Surinam Grass: preemergence; for Surinam Grass plant response rating: postemergence, visual rating, scale 0 (no effect) to 100 (complete control)
Summary of the method: (§3)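 Seeds were planted and treated preemergence with compounds formulated in a non-phytotoxic solvent mixture containing surfactant, while plants at the 1- to 4-leaf stage (2 to 18 cm) received postemergence sprays. Flooded paddy plants were grown to the 2-leaf stage. After 13 to 15 days in a greenhouse, injury was visually rated 0–100 against untreated controls.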

cocklebur = assay: Test B pre-/postemergence herbicide test; format: in vivo, Xanthium strumarium; details: for Plant response rating, Cocklebur: preemergence; for Cocklebur plant response rating: postemergence, visual rating, scale 0 (no effect) to 100 (complete control)
Summary of the method: as §2

corn = assay: Test B pre-/postemergence herbicide test; format: in vivo, Zea mays; details: for Plant response rating, Corn: preemergence; for Corn plant response rating: postemergence, visual rating, scale 0 (no effect) to 100 (complete control)
Summary of the method: as §3

large crabgrass [7] = assay: Test B pre-/postemergence herbicide test; format: in vivo, Digitaria sanguinalis; details: for Plant response rating, Crabgrass, Large: preemergence; for Crabgrass, Large plant response rating: postemergence, visual rating, scale 0 (no effect) to 100 (complete control)
Summary of the method: as §3

giant foxtail [8] = assay: Test B pre-/postemergence herbicide test; format: in vivo, Setaria faberi; details: for Plant response rating, Foxtail, Giant: preemergence; for Foxtail, Giant plant response rating: postemergence, visual rating, scale 0 (no effect) to 100 (complete control)
Summary of the method: as §3

lambsquarters = assay: Test B pre-/postemergence herbicide test; format: in vivo, Chenopodium album; details: for Lambsquarters plant response rating: postemergence, visual rating, scale 0 (no effect) to 100 (complete control)
Summary of the method: as §3

morningglory [9] = assay: Test B pre-/postemergence herbicide test; format: in vivo, Ipomoea coccinea; details: for Plant response rating, Morningglory: preemergence; for Morningglory plant response rating: postemergence, visual rating, scale 0 (no effect) to 100 (complete control)
Summary of the method: as §2

pigweed = assay: Test B pre-/postemergence herbicide test; format: in vivo, Amaranthus retroflexus; details: for Plant response rating, Pigweed: preemergence; for Pigweed plant response rating: postemergence, visual rating, scale 0 (no effect) to 100 (complete control)
Summary of the method: as §3

rice [10] = assay: Test B pre-/postemergence herbicide test; format: in vivo, Oryza sativa; details: preemergence
Summary of the method: as §3

velvetleaf [11] = assay: Test B pre-/postemergence herbicide test; format: in vivo, Abutilon theophrasti; details: for Plant response rating, Velvetleaf: preemergence; for Velvetleaf plant response rating: postemergence, visual rating, scale 0 (no effect) to 100 (complete control)
Summary of the method: as §3

blackgrass = assay: Test B postemergence herbicide test; format: in vivo, Alopecurus myosuroides; details: postemergence, visual rating, scale 0 (no effect) to 100 (complete control)
Summary of the method: (§4)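 Visual ratings, 0 (no effect) to 100 (complete control), made versus controls after 13–15 d greenhouse. Paddy plants treated at 2-leaf stage; postemergence plants at 1- to 4-leaf stage, 2–18 cm tall.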

wheat = assay: Test B postemergence herbicide test; format: in vivo, Triticum aestivum; design: key to Wheat plant response rating: 0 = no effect, 100 = complete control; details: postemergence, 500 g ai/ha; visual rating, scale 0 (no effect) to 100 (complete control)
Summary of the method: (§5)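 After treating 2-leaf paddy plants or 2–18 cm postemergence plants (1 to 4 leaves) with formulated chemical, researchers kept them in a greenhouse for 13–15 days. Effects were judged visually versus controls: 0 indicates none, 100 total control.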

wild oat = assay: Test B postemergence herbicide test; format: in vivo, Avena fatua; details: postemergence, visual rating, scale 0 (no effect) to 100 (complete control)
Summary of the method: as §5

rice [12] = assay: Test B flooded paddy test; format: in vivo, Oryza sativa; details: 1000 g ai/ha, visual rating, scale 0 to 100 (0 no effect, 100 complete control), 13 to 15 days
Summary of the method: as §4

[13] = test system: small flower umbrella sedge; assay: Test B flooded paddy test; format: in vivo, Cyperus difformis; details: 1000 g ai/ha, visual rating, scale 0 to 100 (0 no effect, 100 complete control), 13 to 15 days
Summary of the method: as §4

ducksalad = assay: Test B flooded paddy test; format: in vivo, Heteranthera limosa; details: 1000 g ai/ha, visual rating, scale 0 to 100 (0 no effect, 100 complete control), 13 to 15 days
Summary of the method: as §4

barnyardgrass [14] = assay: Test B flooded paddy test; format: in vivo, Echinochloa crus-galli; details: 1000 g ai/ha, visual rating, scale 0 to 100 (0 no effect, 100 complete control), 13 to 15 days
Summary of the method: as §4

[15] = Postemergence, 500 g ai/ha, 0 to 100 scale, 0 no effect, 100 complete control
[16] = Postemergence, 2000 g ai/ha, 0 to 100 scale, 0 no effect, 100 complete control
[17] = Preemergence, 500 g ai/ha, visual rating, 0 to 100 scale (0 no effect, 100 complete control)
[18] = Preemergence, 2000 g ai/ha, visual rating, 0 to 100 scale (0 no effect, 100 complete control)
[19] = preemergence, 500 g ai/ha, visual injury, 0 to 100 scale (0 no effect, 100 complete control)
[20] = 500 g ai/ha, visual rating 0-100, 0 no effect, 100 complete control
[21] = 125 g ai/ha, 0 to 100 scale, 0 is no effect, 100 is complete control

CCn1nc(C(C)(C)C)cc1C(=O)Nc1cc(C(=O)OC)cc(C)n1 [Compound 148]
10: Plant response rating, Crabgrass, Large (large crabgrass [2]; [16]) | Foxtail, Giant plant response rating (giant foxtail [3]; [18]) | Plant response rating, Morningglory (morningglory [4]; [16]) | Velvetleaf plant response rating (velvetleaf [5]; [18]) | Plant response rating, Barnyardgrass (barnyardgrass [6]; [20]) | Surinam Grass plant response rating (Surinam grass; 125 g ai/ha) | Surinam Grass plant response rating (Surinam grass; 500 g ai/ha) | Corn plant response rating (corn; 125 g ai/ha) | Corn plant response rating (corn; 500 g ai/ha) | Crabgrass, Large plant response rating (large crabgrass [7]; 125 g ai/ha) | Crabgrass, Large plant response rating (large crabgrass [7]; 500 g ai/ha) | Foxtail, Giant plant response rating (giant foxtail [8]; 125 g ai/ha) | Foxtail, Giant plant response rating (giant foxtail [8]; 500 g ai/ha) | Lambsquarters plant response rating (lambsquarters; 125 g ai/ha) | Lambsquarters plant response rating (lambsquarters; 500 g ai/ha) | Morningglory plant response rating (morningglory [9]; 125 g ai/ha) | Morningglory plant response rating (morningglory [9]; 500 g ai/ha) | Pigweed plant response rating (pigweed; 125 g ai/ha) | Plant response rating, Rice (rice [10]; [20]) | Velvetleaf plant response rating (velvetleaf [11]; 125 g ai/ha) | Velvetleaf plant response rating (velvetleaf [11]; 500 g ai/ha) | Oat, Wild plant response rating (wild oat; 125 g ai/ha) | Oat, Wild plant response rating (wild oat; 500 g ai/ha)
15: Crabgrass, Large plant response rating (large crabgrass [2]; [18]) | Foxtail, Giant plant response rating (giant foxtail [3]; [15]) | Plant response rating, Foxtail, Giant (giant foxtail [3]; [16]) | Morningglory plant response rating (morningglory [4]; [15]) | Plant response rating, Pigweed (redroot pigweed; [16]) | Plant response rating, Velvetleaf (velvetleaf [5]; [16])
20: Barnyardgrass plant response rating (barnyardgrass [1]; [15]) | Barnyardgrass plant response rating (barnyardgrass [1]; [18]) | Velvetleaf plant response rating (velvetleaf [5]; [15]) | Barnyardgrass plant response rating (barnyardgrass [6]; 500 g ai/ha) | Cocklebur plant response rating (cocklebur; 125 g ai/ha) | Plant response rating, Foxtail, Giant (giant foxtail [8]; [20]) | Pigweed plant response rating (pigweed; 500 g ai/ha) | Barnyardgrass plant response rating (barnyardgrass [14])
70: Cocklebur plant response rating (cocklebur; 500 g ai/ha) | Sedge, Umbrella plant response rating [13]
0: Barnyardgrass plant response rating (barnyardgrass [1]; [17]) | Crabgrass, Large plant response rating (large crabgrass [2]; [17]) | Foxtail, Giant plant response rating (giant foxtail [3]; [17]) | Morningglory plant response rating (morningglory [4]; [17]) | Pigweed plant response rating (redroot pigweed; [15]) | Pigweed plant response rating (redroot pigweed; [19]) | Velvetleaf plant response rating (velvetleaf [5]; [19]) | Barnyardgrass plant response rating (barnyardgrass [6]; 125 g ai/ha) | Plant response rating, Barnyardgrass (barnyardgrass [6]; [21]) | Plant response rating, Surinam Grass (Surinam grass; [20]) | Plant response rating, Surinam Grass (Surinam grass; [21]) | Plant response rating, Cocklebur (cocklebur; [20]) | Plant response rating, Cocklebur (cocklebur; [21]) | Plant response rating, Corn (corn; [20]) | Plant response rating, Corn (corn; [21]) | Plant response rating, Crabgrass, Large (large crabgrass [7]; [20]) | Plant response rating, Crabgrass, Large (large crabgrass [7]; [21]) | Plant response rating, Foxtail, Giant (giant foxtail [8]; [21]) | Plant response rating, Lambsquarters (lambsquarters; preemergence, 125 g ai/ha, 0 to 100 scale, 0 is no effect, 100 is complete control) | Plant response rating, Morningglory (morningglory [9]; [20]) | Plant response rating, Morningglory (morningglory [9]; [21]) | Plant response rating, Pigweed (pigweed; [20]) | Plant response rating, Pigweed (pigweed; [21]) | Plant response rating, Rice (rice [10]; [21]) | Plant response rating, Velvetleaf (velvetleaf [11]; [20]) | Plant response rating, Velvetleaf (velvetleaf [11]; [21]) | Blackgrass plant response rating (blackgrass; 125 g ai/ha) | Blackgrass plant response rating (blackgrass; 500 g ai/ha) | Rice plant response rating (rice [12]) | Ducksalad plant response rating (ducksalad)
5: Crabgrass, Large plant response rating (large crabgrass [2]; [15]) | Morningglory plant response rating (morningglory [4]; [18])
25: Plant response rating, Barnyardgrass (barnyardgrass [1]; [16]) | Pigweed plant response rating (redroot pigweed; [18])
30: Wheat plant response rating (wheat)
